Values joined by “and” are separate entries in the source; they are usually repeats but may differ in a detail not shown here. Equal values may be shown once.
Columns and labels:
[1] = test system: HCC827 tumors (delE746-A750 activating mutation); test: Antitumor activity in the HCC827 mouse xenograft model; type: in vivo; details: oral QD; for Tumor Weight: tumors harvested day 35, mean ± SD, n = 8; for Tumor Weight Inhibition Rate: tumors harvested day 35
Method: Cell Culture and Implantation. HCC827 cells were cultured in a CO2 incubator in culture media containing modified RPMI (Hyclone, Cat: SH30809.01); 10% fetal bovine serum (Gibco, Cat: 10099-141); 100 U/ml penicillin and 100 μg/ml streptomycin (Hyclone, Cat: SV30010). Cells were digested with 0.25% trypsin (Hyclone, Cat: SH30042.01) and subcultured every four days. When the required cells was in the logarithmic growth phase, the cell counts were collected and the tumors were subcutaneously implanted in Balb/c nude female mice (14-19 g) at 1×10^7/0.2 mL/mouse (50% Matrigel CORNING, Cat: 354234) in the right back side of each mouse. 8 days after implantation, 56 mice with tumor volume of 132-289 mm^3 were selected and randomly divided into 7 groups according to tumor volume and body weight.
Test Sample Preparation Formulation and Administration. A stock solution of 1 as the methanesulfonate salt was prepared at 0.3 mg/mL in normal saline. A stock solution of 2 as the hydrochloride salt was prepared 2.0 mg/mL in sterile water. The vehicle control was a solution of 0.5% sodium carboxymethyl cellulose in sterile water. All stock solutions were stored at 2-8° C. and prepared fresh on a weekly basis. The stock solutions were administered orally either individually or in combination at the indicated salt dosages depicted in FIG. 1 and Table 2 once a day for 14 days. Dosing was suspended when body weight lost more than 15%.
Tumor Volume Determination and Data Analysis. The tumor volumes were determined twice per week by measuring the length and width of each tumor with a Vernier caliper and calculating the tumor volume. All tumors were harvested on day 35 and weighed. The Tumor Weight Inhibition Rate (IRTW%) was calculated via the equation: IRTW%=(1−(TW(treated)/TW(control)))×100%, where TW is defined as tumor weight. Histograms were generated using Prism GraphPad (mean±S.E.M.), and T analysis was used for statistical analysis. A p value less than 0.05 represents a significant difference between groups and a p value less than 0.01 represents a highly significant difference between groups.

[2] = test system: kinase domain of the T790M double mutant; details: cited from earlier work
[3] = test system: MCF7 human breast cancer cell line; details: cited from earlier work

| Structure (SMILES) | Tumor Weight ([1]; 1 at 3 mg/kg alone) [g] | Tumor Weight Inhibition Rate ([1]; 1 at 3 mg/kg alone, 3 mg/kg) | inhibition of EGFR T790M double mutant kinase domain [2] | Tumor Weight Inhibition Rate ([1]; 2 at 20 mg/kg alone) [%] | Tumor Weight ([1]; 2 at 20 mg/kg alone) [g] | in vitro activity in MCF7 cell line [3] |
| --- | --- | --- | --- | --- | --- | --- |
| C=CC(=O)Nc1cc(Nc2nccc(-c3cn(C)c4ccccc34)n2)c(OC)cc1OCCN(C)C [Compound 1, N-[2-[2-(dimethylamino)ethoxy]-4-methoxy-5-[[4-(1-methyl-1H-indol-3-yl)-2-pyrimidinyl]amino]phenyl]-2-propenamide] | 0.1423 ± 0.1152 | 83.1% and 83.1^f % | effectively inhibits |  |  |  |
| CCN1CCN(Cc2ccc(Nc3ncc(F)c(-c4ccc5nn(C)c(C(C)C)c5c4)n3)nc2)CC1 [Compound 2, N-[5-[(4-ethyl-1-piperazinyl)methyl]-2-pyridinyl]-5-fluoro-4-[2-methyl-3-(1-methylethyl)-2H-indazol-5-yl]-2-pyrimidinamine] |  |  |  | 30.2 | 0.5864 ± 0.2235 | potent in vitro activity |
